Laboratory results reported in patent US20250122225A1, “MASP-2 INHIBITORS AND METHODS OF USE” (Omeros Corporation, priority 2023, published 2025).
Structures can show the parent of a compound that is named as a salt.

Assays:
MASP-2 (CCP1-CCP2-SP) = target: T1, MASP-2 (CCP1-CCP2-SP) (Homo sapiens, UniProt O00187); assay: Enzymatic assay for MASP-2 inhibitory activity (fluorogenic substrate); format: biochemical
T1 construct: 15 μL of Enzyme MASP-2 (CCP1-CCP2-SP) in Assay Buffer
Protocol: The MASP-2 assay utilizes a fluorogenic substrate, based on the cleavage site for its natural substrate C2. The assay was run at room temperature in an assay buffer containing 20 mM HEPES, pH 7.4, 140 mM NaCl and 0.1% Tween 20. Assay parameters were adjusted such that the assay was linear with respect to time, enzyme, and substrate concentrations. Under the optimized assays conditions, IC50 values were equivalent to Ki values, except in the few cases of “tight binding” inhibitors. Cases of “tight binding” or possible “slow binding” inhibitors were handled by the methods described in Copeland R. A. (2013) Evaluation of Enzyme Inhibitors in Drug Discovery. 2nd Ed., John Wiley and Sons, Inc., Chapters 5-7.
The MASP-2 assay protocol was carried out as follows. Test compounds were serially diluted in DMSO and then 100 nL of each dilution was transferred to the assay plate(s). 10 μL of Assay Buffer was added, followed by 15 μL of Enzyme MASP-2 (CCP1-CCP2-SP) in Assay Buffer. 15 μL of Substrate in Assay Buffer was then added and the mixture was mixed to start the reaction. After 20 min at room temperature, 15 μL of a stop solution (0.1 M acetic acid) was added, the sample was mixed, and the plates were read on a SpectraMax i3x Microplate Reader with the data exported as an Excel file. Each assay plate included a “no inhibitor” (DMSO only) control, a “no enzyme” control, and a reference inhibitor control. % Activity values=100*(average test comp. fluorescence−average “no enzyme” fluorescence)/(average “DMSO only” fluorescence−average “no enzyme” fluorescence). IC50 and Ki replicate values were very reproducible, with values well within ±2-fold.

human α-thrombin = target: T2, human α-thrombin (Homo sapiens, UniProt P00734); assay: Enzymatic assay for thrombin (fluorogenic peptide substrate Boc-VPR-AMC); format: biochemical
T2 construct: enzyme (human α-thrombin (BioPharm® Lab.)) in assay buffer; purchased BioPharm® Lab
Protocol: The thrombin assay utilizes a fluorogenic peptide substrate (Boc-VPR-AMC (R&D Systems) and was run at room temperature in an assay buffer containing 20 mM Hepes, pH 7.4, 140 mM NaCl and 0.1% Tween 20. Assay parameters were adjusted such that the assay was linear with respect to time, enzyme, and substrate concentrations. Under these optimized assays conditions, IC50 values were equivalent to Ki values, except in a few cases of “tight binding” inhibitors. Cases of “tight binding” or possible “slow binding” inhibitors were handled by the methods described in Copeland R. A. (2013) Evaluation of Enzyme Inhibitors in Drug Discovery. 2nd Ed. John Wiley and Sons, Inc., Chapters 5-7.
The thrombin assay protocol was carried out as follows. Test compounds were serially diluted in DMSO and then 100 nL of each dilution was transferred to the assay plate(s). 10 μL of Assay Buffer was added, followed by 15 μL of enzyme (human α-thrombin (BioPharm® Lab.)) in assay buffer. 15 μL of substrate in assay buffer was then added and the sample mixed to start the reaction. After 20 min at room temperature, 15 μL of a stop solution (0.1 M acetic acid) was added, the sample was mixed, and the plates were read on a SpectraMax® i3x Microplate Reader with the data exported as Excel files. Each assay plate included a “no inhibitor” (DMSO only) control, a “no enzyme” control, and a reference inhibitor control. % Activity values=100*(ave. test comp. fluorescence−ave. “no enz” fluorescence)/(ave. “DMSO only” fluorescence−ave. “no enz” fluorescence). IC50 and Ki values were very reproducible, with values falling well within ±2-fold.

T1 sequence (O00187 445-686 limits assumed): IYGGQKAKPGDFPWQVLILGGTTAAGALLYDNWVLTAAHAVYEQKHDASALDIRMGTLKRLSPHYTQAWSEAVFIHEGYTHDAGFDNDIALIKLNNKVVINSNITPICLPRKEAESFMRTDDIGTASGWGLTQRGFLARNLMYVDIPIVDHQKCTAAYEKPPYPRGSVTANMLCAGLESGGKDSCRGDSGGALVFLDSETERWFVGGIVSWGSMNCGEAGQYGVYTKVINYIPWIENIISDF
T1 sequence (O00187 287-444 partner limits assumed): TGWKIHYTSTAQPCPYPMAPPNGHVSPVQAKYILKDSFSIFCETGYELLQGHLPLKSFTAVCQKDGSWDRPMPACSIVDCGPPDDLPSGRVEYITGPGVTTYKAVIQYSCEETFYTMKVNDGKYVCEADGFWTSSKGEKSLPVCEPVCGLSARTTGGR

Ki (MASP-2 (CCP1-CCP2-SP)) [nM] | Ki (human α-thrombin) [µM] | SMILES
< 500 | > 25 | O=C(NCc1cc2cnccc2[nH]1)[C@@H]1CCc2c(Cl)nc(NCCC(F)F)c(=O)n21 [Compound 19, (S)-N-((1H-pyrrolo[3,2-c]pyridin-2-yl)methyl)-1-chloro-3-((3,3-difluoropropyl)amino)-4-oxo-4,6,7,8-tetrahydropyrrolo[1,2-a]pyrazine-6-carboxamide]
< 500 | 0.5 to 2.5 | Cc1ccc(F)c(CNc2nc(Cl)c3n(c2=O)[C@H](C(=O)NCc2ccc(N)nc2C)CC3)c1 [Compound 20, (S)-N-((6-amino-2-methylpyridin-3-yl)methyl)-1-chloro-3-((2-fluoro-5-methylbenzyl)amino)-4-oxo-4,6,7,8-tetrahydropyrrolo[1,2-a]pyrazine-6-carboxamide]
< 500 | 2.5 to 10 | Cc1ccc(F)c(CNc2nc(Cl)c3n(c2=O)[C@H](C(=O)NCc2cc4cnccc4[nH]2)CC3)c1 [Compound 21, (S)-N-((1H-pyrrolo[3,2-c]pyridin-2-yl)methyl)-1-chloro-3-((2-fluoro-5-methylbenzyl)amino)-4-oxo-4,6,7,8-tetrahydropyrrolo[1,2-a]pyrazine-6-carboxamide]
< 500 | 10 to 25 | COCCCCNc1nc(Cl)c2n(c1=O)[C@H](C(=O)NCc1cc3cnccc3[nH]1)CC2 [Compound 22, (S)-N-((1H-pyrrolo[3,2-c]pyridin-2-yl)methyl)-1-chloro-3-((4-methoxybutyl)amino)-4-oxo-4,6,7,8-tetrahydropyrrolo[1,2-a]pyrazine-6-carboxamide]
< 500 | > 25 | Cc1cc(CNc2nc(Cl)c3n(c2=O)[C@H](C(=O)NCc2cc4cnccc4[nH]2)CC3)cc(C(F)(F)F)c1 [Compound 23, (S)-N-((1H-pyrrolo[3,2-c]pyridin-2-yl)methyl)-1-chloro-3-((3-methyl-5-(trifluoromethyl)benzyl)amino)-4-oxo-4,6,7,8-tetrahydropyrrolo[1,2-a]pyrazine-6-carboxamide]
< 500 | 2.5 to 10 | Cc1cc(C)cc(CNc2nc(Cl)c3n(c2=O)[C@H](C(=O)NCc2ccc(N)nc2C)CC3)c1 [Compound 24, trifluoroacetate]
< 500 | 10 to 25 | O=C(NCc1cc2cnccc2[nH]1)[C@@H]1CCc2c(Cl)nc(NCc3cccc(F)c3)c(=O)n21 [Compound 25, (S)-N-((1H-pyrrolo[3,2-c]pyridin-2-yl)methyl)-1-chloro-3-((3-fluorobenzyl)amino)-4-oxo-4,6,7,8-tetrahydropyrrolo[1,2-a]pyrazine-6-carboxamide]
< 500 | 10 to 25 | Cc1ccc(CNc2nc(Cl)c3n(c2=O)[C@H](C(=O)NCc2cc4cnccc4[nH]2)CC3)cc1C [Compound 26, (S)-N-((1H-pyrrolo[3,2-c]pyridin-2-yl)methyl)-1-chloro-3-((3,4-dimethylbenzyl)amino)-4-oxo-4,6,7,8-tetrahydropyrrolo[1,2-a]pyrazine-6-carboxamide]
< 500 | 10 to 25 | Nc1nc2cc(CNC(=O)[C@@H]3CCc4c(Cl)nc(NCc5ccccc5)c(=O)n43)ccc2[nH]1 [Compound 29, trifluoroacetate]
< 500 | 2.5 to 10 | Cc1nc(N)ccc1CNC(=O)[C@@H]1CCc2c(Cl)nc(NCc3ccc(Cl)cc3)c(=O)n21 [Compound 30, trifluoroacetate]
< 500 | 2.5 to 10 | Cc1cc(C)cc(CNc2nc(Cl)c3n(c2=O)[C@H](C(=O)NCc2cc4c(s2)CNC4)CC3)c1 [Compound 31, (S)-1-chloro-N-((5,6-dihydro-4H-thieno[2,3-c]pyrrol-2-yl)methyl)-3-((3,5-dimethylbenzyl)amino)-4-oxo-4,6,7,8-tetrahydropyrrolo[1,2-a]pyrazine-6-carboxamide]
< 500 | 2.5 to 10 | Cc1cccc(CNc2nc(Cl)c3n(c2=O)[C@H](C(=O)NCc2cc4c(s2)CNC4)CC3)c1F [Compound 32, (S)-1-chloro-N-((5,6-dihydro-4H-thieno[2,3-c]pyrrol-2-yl)methyl)-3-((2-fluoro-3-methylbenzyl)amino)-4-oxo-4,6,7,8-tetrahydropyrrolo[1,2-a]pyrazine-6-carboxamide]
< 500 | 2.5 to 10 | Cc1cccc(CNc2nc(Cl)c3n(c2=O)[C@H](C(=O)NCc2cc4c(s2)CNC4)CC3)c1C [Compound 33, (S)-1-chloro-N-((5,6-dihydro-4H-thieno[2,3-c]pyrrol-2-yl)methyl)-3-((2,3-dimethylbenzyl)amino)-4-oxo-4,6,7,8-tetrahydropyrrolo[1,2-a]pyrazine-6-carboxamide]
< 500 | 2.5 to 10 | O=C(NCc1cc2c(s1)CNC2)[C@@H]1CCc2c(Cl)nc(NCc3cccc(C(F)F)c3)c(=O)n21 [Compound 34, (S)-1-chloro-3-((3-(difluoromethyl)benzyl)amino)-N-((5,6-dihydro-4H-thieno[2,3-c]pyrrol-2-yl)methyl)-4-oxo-4,6,7,8-tetrahydropyrrolo[1,2-a]pyrazine-6-carboxamide]
< 500 | 2.5 to 10 | O=C(NCc1cc2c(s1)CNC2)[C@@H]1CCc2c(Cl)nc(NCc3ccccc3)c(=O)n21 [Compound 35]
< 500 | < 0.5 | Cc1cc(C)cc(CNc2ncc3n(c2=O)[C@H](C(=O)NCc2ccc(N)nc2C)CC3)c1 [Compound 36, (S)—N-((6-amino-2-methylpyridin-3-yl)methyl)-3-((3,5-dimethylbenzyl)amino)-4-oxo-4,6,7,8-tetrahydropyrrolo[1,2-a]pyrazine-6-carboxamide]
< 500 | < 0.5 | Cc1cc(CNc2ncc3n(c2=O)[C@H](C(=O)NCc2ccc(N)nc2C)CC3)cc(C(F)(F)F)c1 [Compound 37, (S)-N-((6-amino-2-methylpyridin-3-yl)methyl)-3-((3-methyl-5-(trifluoromethyl)benzyl)amino)-4-oxo-4,6,7,8-tetrahydropyrrolo[1,2-a]pyrazine-6-carboxamide]
< 500 | < 0.5 | Cc1ccc(CNc2ncc3n(c2=O)[C@H](C(=O)NCc2ccc(N)nc2C)CC3)cc1C [Compound 38, (S)-N-((6-amino-2-methylpyridin-3-yl)methyl)-3-((3,4-dimethylbenzyl)amino)-4-oxo-4,6,7,8-tetrahydropyrrolo[1,2-a]pyrazine-6-carboxamide]
< 500 | 2.5 to 10 | COc1cccc(CNc2ncc3n(c2=O)[C@H](C(=O)NCc2cc4cnccc4[nH]2)CC3)c1 [Compound 39, (S)-N-((1H-pyrrolo[3,2-c]pyridin-2-yl)methyl)-3-((3-methoxybenzyl)amino)-4-oxo-4,6,7,8-tetrahydropyrrolo[1,2-a]pyrazine-6-carboxamide trifluoroacetate]
10000 to 25000 | > 25 | Cc1cc(C)cc(CNc2ncc3n(c2=O)[C@H](C(=O)NCc2ccccn2)CC3)c1 [Compound 40, (S)-3-((3,5-dimethylbenzyl)amino)-4-oxo-N-(pyridin-2-ylmethyl)-4,6,7,8-tetrahydropyrrolo[1,2-a]pyrazine-6-carboxamide trifluoroacetate]
< 500 | 10 to 25 | Cc1cc(C)cc(CNc2ncc3n(c2=O)[C@H](C(=O)NCc2cc4c(s2)CN(C)C4)CC3)c1 [Compound 42, (S)-3-((3,5-dimethylbenzyl)amino)-N-((5-methyl-5,6-dihydro-4H-thieno[2,3-c]pyrrol-2-yl)methyl)-4-oxo-4,6,7,8-tetrahydropyrrolo[1,2-a]pyrazine-6-carboxamide trifluoroacetate]
< 500 | > 25 | Cc1cc(C)cc(CNc2ncc3n(c2=O)[C@H](C(=O)NC(C)c2cc4cnccc4[nH]2)CC3)c1 (stereo partly drawn) [Compound 43, (6S)-N-(1-(1H-pyrrolo[3,2-c]pyridin-2-yl)ethyl)-3-((3,5-dimethylbenzyl)amino)-4-oxo-4,6,7,8-tetrahydropyrrolo[1,2-a]pyrazine-6-carboxamide trifluoroacetate]
